Assay results reported in ChEMBL document CHEMBL1146185, “P2-P4 macrocyclic inhibitors of hepatitis C virus NS3-4A serine protease” (Bioorg Med Chem Lett, 2006).

Target: NS3 (Hepatitis C virus, UniProt A3EZJ3)
Test: Binding affinity to HCV NS3 protease
Set-up: species or system Hepacivirus hominis

Sequence of NS3 (A3EZJ3 whole entry): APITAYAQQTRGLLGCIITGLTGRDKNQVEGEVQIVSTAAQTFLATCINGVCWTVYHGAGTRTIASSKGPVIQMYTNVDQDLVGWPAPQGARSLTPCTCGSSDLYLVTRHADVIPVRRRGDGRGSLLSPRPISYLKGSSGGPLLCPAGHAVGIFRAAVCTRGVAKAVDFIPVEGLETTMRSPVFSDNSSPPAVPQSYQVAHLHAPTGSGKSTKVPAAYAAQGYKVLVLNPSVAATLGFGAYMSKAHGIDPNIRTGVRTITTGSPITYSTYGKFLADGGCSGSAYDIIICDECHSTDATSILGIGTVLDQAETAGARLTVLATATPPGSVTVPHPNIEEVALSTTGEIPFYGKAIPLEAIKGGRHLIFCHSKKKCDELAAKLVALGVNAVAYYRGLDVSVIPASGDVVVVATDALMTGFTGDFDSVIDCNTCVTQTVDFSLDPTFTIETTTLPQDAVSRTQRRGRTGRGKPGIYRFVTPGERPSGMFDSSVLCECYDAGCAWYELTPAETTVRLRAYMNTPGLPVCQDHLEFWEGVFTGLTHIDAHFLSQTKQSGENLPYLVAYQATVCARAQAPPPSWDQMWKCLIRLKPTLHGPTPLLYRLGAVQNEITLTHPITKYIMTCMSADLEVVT

Row | Compound | Ki
1 | CCCC(NC(=O)[C@@H]1C[C@@H]2CN1C(=O)[C@H](C1CCCCC1)NC(=O)Cc1ccc(C)c(c1)OCCCO2)C(=O)C(=O)NCC(=O)N[C@H](C(=O)N(C)C)c1ccccc1 (some centres not stated) | 12 nM
2 | CCCC(NC(=O)[C@@H]1C[C@@H]2CN1C(=O)[C@H](C1CCCCC1)NC(=O)N(C)c1cccc(c1)OCCCO2)C(=O)C(=O)NCC(=O)N[C@H](C(=O)N(C)C)c1ccccc1 (some centres not stated) | 90 nM
3 | CCCC(NC(=O)[C@@H]1C[C@@H]2CN1C(=O)[C@H](C(C)(C)C)NC(=O)Oc1cccc(c1)OCCCO2)C(=O)C(=O)NCC(=O)N[C@H](C(=O)N(C)C)c1ccccc1 (some centres not stated) | 200 nM
4 | CCCC(NC(=O)[C@@H]1C[C@@H]2CN1C(=O)[C@H](C(C)(C)C)NC(=O)c1cccc(c1)OCCCCO2)C(=O)C(=O)NCC(=O)N[C@H](C(=O)N(C)C)c1ccccc1 (some centres not stated) | 210 nM
5 | CCCC(NC(=O)[C@@H]1C[C@@H]2CN1C(=O)[C@H](C1CCCC(C(=O)O)C1)NC(=O)Cc1cccc(c1)OCCCO2)C(=O)C(=O)NCC(=O)N[C@H](C(=O)N(C)C)c1ccccc1 (some centres not stated) | 6 nM
6 | CCCC(NC(=O)[C@@H]1C[C@@H]2CN1C(=O)[C@H](C1CCCCC1)NC(=O)Cc1cc(OC)cc(c1)OCCCO2)C(=O)C(=O)NCC(=O)N[C@H](C(=O)N(C)C)c1ccccc1 (some centres not stated) | 32 nM

Now from value to compound:

Row | Ki | Compound
7 | 1600 nM | CCCC(NC(=O)[C@@H]1C[C@@H]2CN1C(=O)[C@H](C1CCCCC1)NC(=O)Nc1cccc(c1)OCCCO2)C(=O)C(=O)NCC(=O)N[C@H](C(=O)N(C)C)c1ccccc1 (some centres not stated)
8 | 30 nM | CCCC(NC(=O)[C@@H]1C[C@@H]2CN1C(=O)[C@H]([C@H]1CC[C@@H](C(=O)O)CC1)NC(=O)Cc1cccc(c1)OCCCO2)C(=O)C(=O)NCC(=O)N[C@H](C(=O)N(C)C)c1ccccc1 (some centres not stated)
9 | 26 nM | CCCC(NC(=O)[C@@H]1C[C@@H]2CN1C(=O)[C@H](C1CCCCC1)NC(=O)N(C)Cc1cccc(c1)OCCCO2)C(=O)C(=O)NCC(=O)N[C@H](C(=O)N(C)C)c1ccccc1 (some centres not stated)
10 | 30 nM | CCCC(NC(=O)[C@@H]1C[C@@H]2CN1C(=O)[C@H](C1CCCCC1)NC(=O)Cc1cc(C)cc(c1)OCCCO2)C(=O)C(=O)NCC(=O)N[C@H](C(=O)N(C)C)c1ccccc1 (some centres not stated)
11 | 19 nM | CCCC(NC(=O)[C@@H]1C[C@@H]2CN1C(=O)[C@H]([C@H]1CC[C@H](C(=O)O)CC1)NC(=O)Cc1cccc(c1)OCCCO2)C(=O)C(=O)NCC(=O)N[C@H](C(=O)N(C)C)c1ccccc1 (some centres not stated)
12 | 8 nM | CCCC(NC(=O)[C@@H]1C[C@@H]2CN1C(=O)[C@H](C1CCCCC1)NC(=O)Cc1cccc(c1)OCCCO2)C(=O)C(=O)NCC(=O)N[C@H](C(=O)N(C)C)c1ccccc1 (some centres not stated)
